Laboratory results as given in paper PMC6591457, “Staphylococcus aureus Uses the Bacilliredoxin (BrxAB)/Bacillithiol Disulfide Reductase (YpdA) Redox Pathway to Defend Against Oxidative Stress Under Infections” (Frontiers in Microbiology, 2019).

Legend:
YpdA [1] = target: T1, YpdA (Staphylococcus aureus, UniProt A0A0H2WWS2); assay: NADPH consumption at […] nm; type: biochemical; conditions: 12.5 uM YpdA, 40 uM BSSB, 500 uM NADPH, 20 mM Tris, 1.25 mM EDTA, pH 8.0
T1 construct: gene SACOL1520; full-length, His6-tagged, pET11b, E. coli BL21(DE3) pLysS, Ni-NTA purified, prereduced with DTT

YpdA [2] = target: T1, YpdA; assay: UV-visible spectrum of purified enzyme; type: binding; conditions: co-purified flavin, absorbance peaks at 375 and 450 nm

T1 sequence (A0A0H2WWS2 entry or part of it): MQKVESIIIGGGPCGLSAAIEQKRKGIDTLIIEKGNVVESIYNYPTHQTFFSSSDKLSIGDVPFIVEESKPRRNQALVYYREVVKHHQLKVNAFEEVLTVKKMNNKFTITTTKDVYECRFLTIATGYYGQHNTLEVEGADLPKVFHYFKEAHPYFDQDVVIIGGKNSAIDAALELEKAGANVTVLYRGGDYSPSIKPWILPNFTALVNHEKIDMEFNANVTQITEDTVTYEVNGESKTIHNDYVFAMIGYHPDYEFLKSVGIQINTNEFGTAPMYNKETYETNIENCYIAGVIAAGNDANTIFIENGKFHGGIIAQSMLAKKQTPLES

Compound | NADPH consumption at 340 nm (YpdA [1]) | UV-visible spectrum of purified enzyme (YpdA [2])
N[C@@H](CSSC[C@H](N)C(=O)N[C@H]1[C@@H](O[C@@H](CC(=O)O)C(=O)O)O[C@H](CO)[C@@H](O)[C@@H]1O)C(=O)N[C@H]1[C@@H](O[C@@H](CC(=O)O)C(=O)O)O[C@H](CO)[C@@H](O)[C@@H]1O [BSSB] | Incubation of YpdA protein with BSSB resulted in significant and fast consumption of NADPH | 
Cc1cc2nc3c(=O)[nH]c(=O)nc-3n(C[C@H](O)[C@H](O)[C@H](O)COP(=O)(O)OP(=O)(O)OC[C@H]3O[C@@H](n4cnc5c(N)ncnc54)[C@H](O)[C@@H]3O)c2cc1C [FAD] |  | UV-visible spectrum revealed the presence of the FAD co-factor
NC(=O)C1=CN([C@@H]2O[C@H](COP(=O)(O)OP(=O)(O)OC[C@H]3O[C@@H](n4cnc5c(N)ncnc54)[C@H](OP(=O)(O)O)[C@@H]3O)[C@@H](O)[C@H]2O)C=CC1 [NADPH] | Purified YpdA is able to reduce BSSB back to BSH with electrons from NADPH | 
